Results as given in publication PMC9921777, “Coumarin-Based Sulfonamide Derivatives as Potential DPP-IV Inhibitors: Pre-ADME Analysis, Toxicity Profile, Computational Analysis, and In Vitro Enzyme Assay” (Molecules, 2023).

Legend:
[1] = target: DPP-IV enzyme (Homo sapiens, UniProt P27487); assay: In vitro DPP-IV enzyme inhibition assay (Cayman Chemical kit, item 700210); settings: for inhibition at 250 µM: read-out: % Inhibition (at Conc.)
[2] = system: DPP-IV; settings: DPP-IV enzyme assay of coumarin; cited from earlier work

Chain of DPP-IV enzyme (P27487 whole entry): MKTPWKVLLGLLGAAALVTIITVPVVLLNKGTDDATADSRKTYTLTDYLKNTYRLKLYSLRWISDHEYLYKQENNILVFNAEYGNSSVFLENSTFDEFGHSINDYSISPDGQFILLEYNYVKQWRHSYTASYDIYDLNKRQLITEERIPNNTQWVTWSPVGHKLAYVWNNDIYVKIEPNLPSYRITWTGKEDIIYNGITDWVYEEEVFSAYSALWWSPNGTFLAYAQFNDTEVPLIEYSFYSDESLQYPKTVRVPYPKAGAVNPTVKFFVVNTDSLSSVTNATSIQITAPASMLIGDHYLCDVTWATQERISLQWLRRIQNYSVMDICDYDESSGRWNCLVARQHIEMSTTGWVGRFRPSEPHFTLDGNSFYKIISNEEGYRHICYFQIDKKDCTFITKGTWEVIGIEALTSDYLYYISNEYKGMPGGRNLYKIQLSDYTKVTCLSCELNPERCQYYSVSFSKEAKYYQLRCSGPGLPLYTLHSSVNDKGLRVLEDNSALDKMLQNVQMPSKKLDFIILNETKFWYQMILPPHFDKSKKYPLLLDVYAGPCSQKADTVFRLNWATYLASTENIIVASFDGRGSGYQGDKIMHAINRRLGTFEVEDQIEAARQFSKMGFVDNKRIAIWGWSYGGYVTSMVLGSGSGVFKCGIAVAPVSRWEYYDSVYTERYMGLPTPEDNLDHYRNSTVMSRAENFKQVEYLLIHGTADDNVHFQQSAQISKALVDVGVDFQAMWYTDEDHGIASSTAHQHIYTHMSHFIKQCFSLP

Row | IC50 [1] [µM] | inhibition at 250 µM [1] [%] | Structure (SMILES) | IC50 [2] [µM]
1 | 14.5 ± 1.2 | 93.5 ± 2.02 | O=c1oc2ccc(S(=O)(=O)Nc3ccccc3)cc2cc1Cl [6a, 3-Chloro-2-oxo-2H-1-benzopyran-6-(N-phenyl)sulfonamide] | –
2 | 15.7 ± 0.98 | 91.15 ± 0.9 | O=c1oc2ccc(S(=O)(=O)Nc3ccccn3)cc2cc1Cl [6b, 3-Chloro-2-oxo-N-(pyridin-2-yl)-2H-chromene-6-sulfonamide] | –
3 | 16.3 ± 2.04 | 90.3 ± 2.04 | O=c1oc2ccc(S(=O)(=O)Nc3cccnc3)cc2cc1Cl [6c, 3-Chloro-2-oxo-N-(pyridin-3-yl)-2H-chromene-6-sulfonamide] | –
4 | 15.2 ± 1.02 | 92.4 ± 1.11 | O=c1oc2ccc(S(=O)(=O)Nc3ccncc3)cc2cc1Cl [6d, 3-Chloro-2-oxo-N-(pyridin-4-yl)-2H-chromene-6-sulfonamide] | –
5 | 11 ± 1 | 95.8 ± 1.08 | O=c1oc2ccc(S(=O)(=O)Nc3nc4ccccc4[nH]3)cc2cc1Cl [6i, 3-Chloro-2-oxo-2H-1-benzopyran-6-(N-benzimidazole)sulfonamide] | –
6 | 12.92 ± 0.11 | 95.4 ± 1.1 | Cc1ccc(NS(=O)(=O)c2ccc3oc(=O)c(Cl)cc3c2)cc1 [6r, 3-Chloro-2-oxo-N-(p-tolyl)-2H-chromene-6-sulfonamide] | –
7 | 18.29 ± 0.1 | 89.3 ± 0.9 | Cc1ccccc1NS(=O)(=O)c1ccc2oc(=O)c(Cl)cc2c1 [6s, 3-Chloro-2-oxo-N-(o-tolyl)-2H-chromene-6-sulfonamide] | –
8 | 17.73 ± 0.02 | 88.3 ± 2.06 | O=c1oc2ccc(S(=O)(=O)NCc3ccccc3)cc2cc1Cl [6t, N-benzyl-3-chloro-2-oxo-2H-chromene-6-sulfonamide] | –
9 | – | – | O=c1ccc2ccccc2o1 [coumarin] | 54.8
